A short description of data set [1]: in vivo. To be noted: both, ICR, mouse, iv.
From the text: (§2) The median lethal dose method was taken for the acute toxicity test in mice. 50 ICR mice met experimental requirements were selected and randomly divided into 5 dose groups by weight, 10 animals each group with males and females half and half. […] Toxic reactions were observed during administration and after administration in mice.
Data set [2] can be described thus: acute toxicity test in Beagle dogs. To be noted: dog, in vivo, doses 44-225 mg/kg. The format is in vivo. As to the method: (§1) 15 Beagle dogs were used for acute toxicity test, and given different doses of Pantoprazole Sodium of 44, 67, 100, 150 and 225 mg/kg. 3 animals belongs to each group and toxic reactions were observed after administration in each group. […] The Pantoprazole Sodium was divided into 5, 3 and […] groups by high, medium and low doses. The test period is 13 weeks. 80 healthy Wistar rats with males and females half and half were randomly divided into four groups, and were gavaged once a day regularly, drug withdrawal 2 weeks after administration 13 weeks, and then taken conventional toxicology observations and index detection.

The test system of data set [3] is Beagle dogs. In words: acute toxicity test in Beagle dogs. The format is in vivo. To be noted: at the dose of 150 mg/kg. As for the experimental part:
as §1

Data set [4] has as its system Wistar rats. In words: long-term toxicity test in rats (13 weeks). As for the experimental part: as §1
A short description of data set [5]: thermal stability test at 60° C. and 90% relative humidity. Type of data set: physicochemical. To be noted: for change of polymorph, purity and appearance: 15 days at 60° C. and 90% relative humidity, sodium salt. As for the experimental part: The feature of the crystalline form M of Pantoprazole Sodium compound provided in the present invention is free of any crystalline solvents, and the melting point of the novel crystalline form is 192±2° C., which is higher than those of traditional crystalline forms. […] The product of the novel crystalline form has higher bulk density and fluidity with an appearance of stubby rod. The crystalline product especially has greater advantages in the preparation of formulations of Pantoprazole Sodium tablets, powder and subsequent other forms of such processes, due to the increased stability, fluidity and bulk density. At the same time, the product has better qualities in the process of filtering, washing, drying, packaging and storage due to the improvement of the properties described above.
1 g of dried solid Pantoprazole Sodium was added to 20 mL of n-butanol and n-pentanol (1:1, in volume) to form a suspension, and then 0.005 g BHA was added to the suspension under stirring, the suspension was heated to […] to make all the solid dissolved; and 60 mL of cyclohexane was dropwise added to the solution at a speed of 0.12 ml/min under constant temperature to obtain a suspension; meanwhile, a ultrasonic wave with a frequency of 20 KHz, a power of 50 W was applied, followed by cooling the solution down to 0° C. at a rate of 0.2° C./min, continuing to stir for 1 h, vacuum filtrating the crystal slurry, and the residue was dried at 50° C. and under normal pressure for 48 h to constant weight, to obtain crystalline form M of Pantoprazole Sodium product. XRD pattern of the novel crystalline form M was shown in FIG. 1, comprising characteristic peaks (expressed in degrees 2θ) at 5.62, 11.62, 12.16, 13.80, 17.18, 18.80, 21.72, 23.44, 25.16 and 26.88. DSC thermogram of the novel crystalline form M was shown in FIG. 2, comprising an endothermic peak at 192.61° C. […] The product of the novel crystalline form M had higher bulk density and fluidity with an appearance of stubby rod, as shown in FIG. 3.

The nature of data set [6]: storage stability at normal temperature and air humidity. The format is physicochemical. To be noted: 100 days stored at normal temperature and air humidity. As for the experimental part: XRD pattern of the novel crystalline form M was shown in FIG. 1, comprising characteristic peaks (expressed in degrees 2θ) at 5.62, 11.62, 12.16, 13.80, 17.18, 18.80, 21.72, 23.44, 25.16 and 26.88. DSC thermogram of the novel crystalline form M was shown in FIG. 2, comprising an endothermic peak at 192.61° C. […] The product of the novel crystalline form M had higher bulk density and fluidity with an appearance of stubby rod, as shown in FIG. 3.

Data set [7] relates to ICR mice. To be noted: intravenous injection.
From the text: as §2
The conditions of data set [8]: cited from earlier work.
Data set [9] is described as follows: toxic reaction tests (overall comparison). The format is in vivo. To be noted: versus existing Pantoprazole Sodium.

SMILES strings stand for the structures. Counter-ions that a name gives are not always drawn.

Usually LD50 stands for the dose at which mortality reaches 50%. The low end stands for a more toxic substance, the high end for a less toxic substance. In the case of `COc1ccnc(C[S+]([O-])c2nc3cc(OC(F)F)ccc3[n]2[Na+])c1OC` (stereo not drawn) [Example 1, 5-difluoromethoxy-2-[(3,4-dimethoxy-2-pyridinyl)methyl]sulfinyl-1H-benzimidazole sodium salt], in data set [1], the LD50 was 392 mg/kg. Further, the LD50 in [2] amounted to 70 mg/kg. The toxic reactions entry in data set [3] was “tremors, increased salivation, limp, vomiting, and death after 20 min”. Further, the “toxicology observations and indexes, medium- and low-dose groups” value in data set [4] (Wistar rats, gavage once a day, 13 weeks, 3 and 1 g/kg) was “no significant difference occurred”. Also, the “dose of nontoxic response” value in [4] (both, Wistar, rat, in vivo, 13 weeks) is 3000 mg/kg. Moreover, in [4] (rat, in vivo), the histopathological examination entry was “liver cell degeneration occurred in one rat” and the “indexes after drug withdrawal” value is “No obvious abnormality occurred”. The “change of polymorph, purity and appearance” value in data set [5] is “did not make any change”. Also, in data set [6], the “change of polymorph, purity and color” value was “did not make any change”. Besides, the “toxic reactions during administration” value in data set [7] is “struggling, shortness of breath, limbs limp, difficulty breathing, and severe to death”.

Turning to `COc1ccnc(C[S+]([O-])c2nc3cc(OC(F)F)ccc3[n]2[Na+])c1OC` (stereo not drawn) [Example 2, 5-difluoromethoxy-2-[(3,4-dimethoxy-2-pyridinyl)methyl]sulfinyl-1H-benzimidazole sodium salt], the “change of polymorph, purity and appearance” value in data set [5] is “did not make any change”. The “change of polymorph, purity and color” value in [6] is “did not make any change”.

Regarding `COc1ccnc(C[S+]([O-])c2nc3cc(OC(F)F)ccc3[n]2[Na+])c1OC` (stereo not drawn) [Example 3, 5-difluoromethoxy-2-[(3,4-dimethoxy-2-pyridinyl)methyl]sulfinyl-1H-benzimidazole sodium salt], the “change of polymorph, purity and appearance” value in [5] was “did not make any change”. The “change of polymorph, purity and color” value in data set [6] was “did not make any change”.

For `COc1ccnc(C[S+]([O-])c2nc3cc(OC(F)F)ccc3[n]2[Na+])c1OC` (stereo not drawn) [Example 4, 5-difluoromethoxy-2-[(3,4-dimethoxy-2-pyridinyl)methyl]sulfinyl-1H-benzimidazole sodium salt], the “change of polymorph, purity and appearance” value in [5] is reported as “did not make any change”. The “change of polymorph, purity and color” value in data set [6] is recorded as “did not make any change”.

Regarding `COc1ccnc(C[S+]([O-])c2nc3cc(OC(F)F)ccc3[n]2[Na+])c1OC` (stereo not drawn) [Pantoprazole Sodium, 5-difluoromethoxy-2-[(3,4-dimethoxy-2-pyridinyl)methyl]sulfinyl-1H-benzimidazole sodium salt], the “solubility in trichloromethane or ethyl ether” value in data set [8] (trichloromethane or ethyl ether) is recorded as “almost insoluble”. In [8] (water or methanol), the “solubility in water or methanol” value is listed as “soluble”.

As for `COc1ccnc(C[S+]([O-])c2nc3cc(OC(F)F)ccc3[n]2[Na+])c1OC` (stereo not drawn) [crystalline form M, 5-difluoromethoxy-2-[(3,4-dimethoxy-2-pyridinyl)methyl]sulfinyl-1H-benzimidazole sodium salt], the “toxicity compared with existing Pantoprazole Sodium” value in data set [9] is “decreased toxicity”. Moreover, the “change of polymorph, purity and appearance” value in data set [5] is “do not changed”. In addition, the thermal stability entry in [5] (conclusion from 15 days at 60° C. and 90% relative humidity) is “better thermal stability”.
